Like-named read-outs stand apart in the source and are kept apart here.
Key:
[1] = tested on: Rat; assay: Behavioral toxicity, rat (po); type: in vivo; conditions: behavioral toxicity
Experimental: (§1) Tests are conducted in groups of at least 8 mice or rats to determine the intrinsic neurotoxicity (neuromuscular impairment) after administration of the test compound by the route of administration to be used in the pharmacology studies. Neurotoxicity is determined in male CF No 1 mice by the rotarod procedure. Inability of the mouse to maintain its equilibrium in 3 trials during 1 min on this rotating rod (6 rpm) is used as an indication of such impairment. In Sprague-Dawley rats, minimal motor impairment (MMI) is determined by overt evidence of ataxia, abnormal gait, and stance.

[2] = Neurological toxicity, rotorod test, mice (ip); type: in vivo; conditions: male, CF No 1, mouse, in vivo
Experimental: as §1

[3] = tested on: Mice; assay: Maximal electroshock seizure (MES) test, mice (ip);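 further: male albino CF No. 1 mice dosed ip, MES stimulus 50 mA at 60 Hz lasting 0.2 s, efficacy endpoint is loss of hind leg tonic extension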
Experimental: (§2) The maximal electroconvulsive shock (MES) test is regarded as a standard screen for anticonvulsant activity in terms of inhibition of seizure spread in generalized tonic-clonic seizures.
(§3) Groups of at least 8 male albino CF No. 1 mice or male albino Sprague-Dawley rats are treated with 10 mL/kg i.p. or 4 mL/kg p.o. of the test compound solution, respectively. The electrical stimulus in the MES test is 50 mA at 60 Hz for mice and 150 mA at 60 Hz for rats, both delivered for 0.2 sec. Abolition of the hind leg tonic extensor component of the seizure is used as the endpoint.

[4] = tested on: Rat; assay: Maximal electroshock seizure (MES) test, rat (po); type: in vivo; conditions: for ED50: read-out: Rat (po) MES, ED50
Experimental: as §2, §3

[5] = tested on: Mice; assay: Formalin test (mice, ip); type: in vivo; conditions: for Formalin Assay Acute (%) / Formalin Assay Inflam. (%): mice, ip; for Formalin Test (mice, ip) Inflammatory (%): duration of licking as percent of control, late phase
Experimental: Compounds of the present invention were active in treating pain in a formalin test carried out in accordance with standard techniques, as described in S. Hunskaar et al., J. Neurosci. Methods 14: 69-76 (1985). Briefly, 0.5% formalin is injected into the mouse hind paw to elicit a bi-phasic licking response, where the first acute phase is thought to correspond to the direct stimulation of peripheral fibers and the second (inflammatory) phase is caused by the release of inflammatory mediators.
Spinal/supraspinal plasticity of nociception is considered as a molecular basis for neuropathic pain particularly during the second (late) phase of the test (Dubuisson & Dennis, 1977; Coderre et al., 1990; Coderre & Melzack, 1992), during which most clinically used drugs against neuropathic pain are active.

[6] = tested on: Mice; assay: Neurological toxicity, rotorod test, mice (ip); type: in vivo; conditions: for Mice (ip) Tox, Td50: rotorod test; for Mice (ip) Tox, TD50: Table b500, rotorod test
Experimental: as §1

[7] = tested on: Rats; assay: Hippocampal kindling test, rats (ip); type: in vivo; conditions: for ED50: Rattus norvegicus, ip, read-out: Hippocampal Kindled Rats (ip) ED50 (interval)
Experimental: The kindling model provides a tool to predict a test compound's activity in complex partial seizures.
Male albino Sprague-Dawley rats (n=8) are kindled to a Stage 5 behavioral seizure. They are treated with an appropriate i.p. dose of the test compound after a 1-week, stimulus-free period. The test compound is evaluated for its effect on kindled motor seizures (seizures scores of 4 and 5), limbic behavior seizures (seizure scores between 1 and 3) and after-discharge duration. After 15 min, each rat is stimulated every 30 min for 3-4 h. Following each stimulation, individual seizure scores and after-discharge duration are recorded. The group mean and standard error of the mean (SEM) are calculated for each parameter.

[8] = tested on: Rat; conditions: cited from earlier work
[9] = rotorod test, read-out: Mice (ip) Tox, TD50
[10] = rotorod test, read-out: Mice (ip) Tox, Td50
[11] = Table b502, protective index (TD50/ED50)

CC(=O)N[C@H](C)C(=O)NCc1ccc(OCc2cccc(F)c2)cc1
melting point: 158 °C

COCCCc1ccc(CNC(=O)[C@@H](COC)NC(C)=O)cc1
melting point: 105 to 107 °C

COCc1ccc(CNC(=O)[C@@H](COC)NC(C)=O)cc1
melting point: 119 to 120 °C

CC(=O)N[C@@H](C(=O)NCc1ccc(OCc2cccc(F)c2)cc1)C(C)(C)C
melting point: 64 to 66 °C

CC(=O)NC(C(=O)NCc1ccc(OCc2cccc(F)c2)cc1)c1ccccn1 (racemic) [(R, S)-9, N-4-(3-Fluorobenzyloxy)benzyl 2-Acetamido-2-(pyridin-2-yl)acetamide]
Rat (po) Tox, TD50 ([1]; Table b500, orally): >30 [4] mg/kg
melting point: 154 to 155 °C
TD50 [2, 9]: 210 mg/kg

COC[C@@H](NC(C)=O)C(=O)NCc1ccc(N=[N+]=[N-])cc1 [(R)-5, (R)—N-(4-Azidobenzyl)-2-acetamido-3-methoxypropanamide]
Mice (ip) PI ([3]; ip, PI=TD50/ED50): 5.5
melting point: 149 to 150 °C
Rat (po) PI ([4]; PI=TD50/ED50): >64
Formalin Assay Acute (%) ([5]; dose 8.0 (mg)): 59%
Formalin Assay Inflam. (%) ([5]; dose 8.0 (mg)): 106%

COC[C@@H](NC(C)=O)C(=O)NCc1ccc(CCc2cccc(F)c2)cc1 [(R)-13]
Mice (ip) MES, ED50 ([3]; Table b501, intraperitoneally): >10, <30 [0.5] mg/kg
Rat (po) Tox, TD50 ([1]; Table b501, orally): >30 [1] mg/kg
melting point: 134 to 136 °C
TD50 [2, 10]: 30 to 100 mg/kg

COC[C@@H](NC(C)=O)C(=O)NCc1ccc(C#Cc2cccc(F)c2)cc1 [(R)-15, (R)—N-4-((3-Fluorophenyl)ethynyl)benzyl 2-Acetamido-3-methoxypropionamide]
Mice (ip) MES, ED50 ([3]; Table b501, intraperitoneally): >30, <100 [1.0, 4.0] mg/kg
melting point: 200 to 202 °C
ED50 ([4]; orally): 1.4 mg/kg
TD50 [2, 10]: 100 to 300 mg/kg

COC[C@@H](NC(C)=O)C(=O)NCc1ccc(COc2cccc(F)c2)cc1 [(R)-16, (R)—N-4-((3-Fluorophenoxy)methyl)benzyl 2-Acetamido-3-methoxypropionamide]
Mice (ip) MES, ED50 ([3]; Table b501, intraperitoneally): 5.9 [0.25] mg/kg
Mice (ip) PI ([3]; Table b501, ip, protective index (TD50/ED50)): 1.8
Rat (po) PI ([4]; Table b501, protective index (TD50/ED50)): >21
Mice (ip) Tox, Td50 [6]: 10 [0.25] mg/kg

COC[C@@H](NC(C)=O)C(=O)NCc1ccc(NCc2cccc(F)c2)cc1 [(R)-17, (R)—N-4-(3-Fluorobenzylamino)benzyl 2-Acetamido-3-methoxypropionamide]
Mice (ip) MES, ED50 ([3]; Table b501, intraperitoneally): >10, <30 [0.5] mg/kg
melting point: 78 to 81 °C
TD50 [2, 10]: 30 to 100 mg/kg

COC[C@@H](NC(C)=O)C(=O)NCc1ccc(COCc2cccc(F)c2)cc1 [(R)-18, (R)—N-4-(((3-Fluoro)benzyloxy)methyl)benzyl 2-Acetamido-3-methoxypropionamide]
Mice (ip) MES, ED50 ([3]; Table b501, intraperitoneally): >30, <100 [0.5] mg/kg
Mice (ip) Tox, Td50 [6]: >30, <100 [0.5] mg/kg

COC[C@@H](NC(C)=O)C(=O)NCc1ccc(OCCc2cccc(F)c2)cc1 [(R)-19, (R)—N-4′-((3″-Fluoro)phenethoxy)benzyl 2-N-Acetamido-3-methoxypropionamide]
Mice (ip) MES, ED50 ([3]; Table b501, intraperitoneally): >30, <100 [0.5, 4.0] mg/kg
melting point: 147 to 148 °C
TD50 [2, 10]: 30 to 100 mg/kg

COC[C@@H](NC(C)=O)C(=O)NCc1ccc(OCc2ccccc2)cc1 [(R)-20, (R)—N-4′-(Benzyloxy)benzyl 2-N-Acetamido-3-methoxypropionamide]
Mice (ip) MES, ED50 ([3]; Table b502, intraperitoneally): 5.8 [0.25] (4.4-7.2) mg/kg
Mice (ip) PI ([3]; Table b502, ip, protective index (TD50/ED50)): 3.8
Rat (po) Tox, TD50 ([1]; Table b502, orally): >250 [1.0] mg/kg
melting point: 149 °C
ED50 ([4]; Rattus norvegicus, Table b502, orally): 5.6 mg/kg
Rat (po) PI [4, 11]: >45
TD50 [2, 9]: 22 mg/kg

COC[C@@H](NC(C)=O)C(=O)NCc1ccc(OCc2ccccc2F)cc1 [(R)-21, (R)—N-4-(2-Fluorobenzyloxy)benzyl 2-Acetamido-3-methoxypropionamide]
Mice (ip) MES, ED50 ([3]; Table b502, intraperitoneally): 6.7 [0.25] (4.8-9.1) mg/kg
melting point: 173 to 174 °C
Rat (po) PI [4, 11]: >45
TD50 [2, 9]: 37 mg/kg

COC[C@@H](NC(C)=O)C(=O)NCc1ccc(OCc2ccc(F)cc2)cc1 [(R)-22, (R)—N-4-(4-Fluorobenzyloxy)benzyl 2-Acetamido-3-methoxypropionamide]
Mice (ip) MES, ED50 ([3]; Table b502, intraperitoneally): >10, <30 [0.5] mg/kg
melting point: 166 to 167 °C
Rat (po) PI [4, 11]: >86
TD50 [2, 9]: 30 to 100 mg/kg

COC[C@@H](NC(C)=O)C(=O)NCc1ccccc1 [(R)-B, (2R)-2-(acetylamino)-N-benzyl-3-methoxypropanamide, reference compound]
ED50 [7]: 14 mg/kg
Formalin Test (mice, ip) Inflammatory (%) ([5]; dose 5 mg/kg): 31 [<0.01] %

COC[C@H](NC(C)=O)C(=O)NCc1ccc(OCc2cccc(F)c2)cc1 [(S)-3, (S)-2-Acetamido-N-(4-(3-fluorobenzyloxy)benzyl)-3-methoxypropanamide]
Mice (ip) MES, ED50 ([3]; ip): >300 [0.5]

COC[C@H](NC(C)=O)C(=O)NCc1ccc(N=[N+]=[N-])cc1 [(S)-5, (S)—N-(4-Azidobenzyl)-2-acetamido-3-methoxypropanamide]
melting point: 149 to 150 °C
TD50 ([2]; read-out: Mice (ip) Tox, TD50): > 300 mg/kg

CC(=O)N[C@@H](C)C(=O)NCc1ccc(OCc2cccc(F)c2)cc1 [(S)-6, (S)—N-4-(3-Fluorobenzyloxy)benzyl 2-Acetamidopropionamide]
Rat (po) Tox, TD50 ([1]; Table b500, orally): >30 [0.25 to mg/kg
melting point: 153 to 154 °C
Mice (ip) Tox, TD50 [6]: >300 [0.5] mg/kg

COC[C@H](NC(C)=O)C(=O)NCc1ccc(OCc2cccc(F)c2)cc1 [(S)-10, (S)-2-Acetamido-N-(4-(3-fluorobenzyloxy)benzyl)-3-methoxypropanamide]
Mice (ip) Mes, ED50 ([3]; Table b500, intraperitoneally): >300 mg/kg
Mice (ip) Tox, TD50 [6]: >300 mg/kg

CC(=O)NC(C(=O)NCc1ccccc1)c1ccccc1 (stereo not drawn) [C, reference compound]
MES ED50 ([3]; ip): 32 mg/kg

CC(=O)NC(C(=O)NCc1ccc(C)cc1)c1ccccc1 (stereo not drawn) [D, reference compound]
MES ED50 ([3]; ip): ~300 mg/kg

COC[C@@H](NC(C)=O)C(=O)NCc1ccc([N+](=O)[O-])cc1 [F, reference compound]
MES ED50 ([3]; ip): >100, <300 mg/kg

COC[C@@H](NC(C)=O)C(=O)NCc1ccccc1 [H, reference compound]
Formalin Assay Acute (%) ([5]; dose 16 (mg)): 100%
Formalin Assay Inflam. (%) ([5]; dose 16 (mg)): 44%

CC(=O)NCC(=O)NCc1ccc(OCc2cccc(F)c2)cc1 [compound 5, N-4-(3-Fluorobenzyloxy)benzyl 2-Acetamidoacetamide]
Rat (po) Tox, TD50 ([1]; Table b500, orally): >500 [1.0] mg/kg
Rat (po) PI ([4]; Table b500, protective index (TD50/ED50)): >16

CCC1(c2ccccc2)C(=O)NC(=O)NC1=O [phenobarbital]
ED50 [7]: 20 mg/kg

O=C1NC(=O)C(c2ccccc2)(c2ccccc2)N1 [phenytoin]
ED50 ([7]; rats): 34 mg/kg
Preliminary Hippocampal Kindling Test (Rats) Seizure Score, Drug ([7]; rats, after drug (pre-drug score in neighbouring column)): 3
Rat (po) MES, ED50 ([8]; Ref 16, 32): 30 [4.0] mg/kg
Rat (po) PI ([8]; Ref 32): >100
Rat (po) MES, ED50 ([8]; reference drugs marked h): 30 [4]
Rat (po) PI ([8]; reference drugs marked h): >100
Formalin Test (mice, ip) Inflammatory (%) ([5]; dose 6 mg/kg): 21 (5) %
